Data: patent publication US12508280B2, “Formulations for improving gut health” (DSM IP ASSETS B.V., priority 2018, dated 2025)

Tests used:
[1] = system: Co-cultures of Caco-2 and HT29-MTX-E12 cells; assay: Barrier integrity (TEER), healthy gut model; format: cell-based; conditions: 48 h minus 0 h fermentation samples, vs corresponding control
Experimental: (§5) Co-cultures of Caco-2 and HT29-MTX-E12 cells were used to assess the protective effect of the supernatants before (0 h) and after fermentation (48 h) for both sets of in vitro experiments above.
(§6) CaCo-2 ECACC 86010202 and HT29-MTX-E12 ECACC 12040401 cells (both from European Collection of Cell Cultures, Salisbury, UK) were both cultured at 37° C., in atmosphere of 5% CO2 in DMEM medium supplemented with 4.5 g/L D-Glucose, 4 mM L-Glutamine, 1 mM Sodium Pyruvate, 1% MEM Non-Essential Amino Acids, 50 μg/mL Gentamicin (Life Technologies Europe B.V., Zug, Switzerland) and 10% heat-inactivated FBS (Sigma-Aldrich, Buchs, Switzerland). Sub-confluent cells were trypsinized using 0.25% Trypsin/EDTA (Life Technologies Europe B.V., Zug, Switzerland) and passaged at a ratio of 1:5-1:10 twice a week. Cells between passages 55 and 85 were used for this study.
(§7) Cells were seeded at a density of 20000 cells/well in a 7:3 ratio (Caco-2:HT29-MTX-E12) in Corning HTS Transwell-24 system PET membranes, 0.4 μM pore size, cell growth area 0.33 cm2/well (Corning BV, Amsterdam, Netherlands) and cultured as described above. Media was changed every second to third day.
For both sets of in vitro experiments, after cells being 13 days in culture, initial transepithelial electrical resistance (TEER) readings were obtained using an EVOM2 Voltohmmeter (EVOM, World Precision Instruments, Berlin) equipped with STX100 Electrodes. TEER values correlate with the tightness of the confluent monolayer (Srinivasan et al. 2015).
The background TEER (insert) was subtracted from total TEER (cell monolayer plus insert) to yield the monolayer resistance and then normalized to surface area by multiplying with the area of the insert (Srinivasan et al. 2015). The integrity of the monolayer was determined at basal level by measuring TEER. A TEER of 300 Ωcm2 was regarded as a tight monolayer (see results section). Afterwards, the cells were treated with sterile filtered fermentation supernatants or fermentation medium as a control (diluted 1:20 in growth media). After 24 h incubation the resistance across each cell monolayer was measured again and the percentage change in TEER compared to initial TEER for each insert was calculated to represent a healthy gut model. All TEER measurements were done by placing the plates containing the inserts on a 37° C. warming plate and were performed in the same duration.

[2] = system: Co-cultures of Caco-2 and HT29-MTX-E12 cells; assay: Barrier integrity, leaky gut model, apical stressor Rhamnolipids; format: cell-based; conditions: vs corresponding control; for Lucifer yellow, apical induction of leaky gut cellular model: 48 h fermentation samples; for TEER, apical induction of leaky gut cellular model: 48 h minus 0 h fermentation samples
Experimental: Since ethanol is known to have antimicrobial effects, two blanks for each type of stock solution were included. As a source of the microbial community, a freshly prepared fecal suspension from the selected donor was added to the reactors. […] All tests, except the blanks, were performed in single repetition, resulting in 40 independent incubations, as specified in Table 1. Incubation conditions of the pre-screening experiment and the final experiment were 48 h at 37° C., under shaking (90 rpm) and anaerobic conditions. […] Effluent samples were collected from each fermentation flask before (0 h fermentation) and after fermentation (48 h fermentation), sterilized by filtering through 0.22 μm filters and used for short chain fatty acids (SCFA), quantification of immunological biomarkers and in vitro analysis in cell culture systems.
as §5, §6, §7
For both sets of in vitro experiments, the integrity of cell monolayers after the stressor test was evaluated by both TEER values and by measuring the transport of Lucifer yellow from apical to basolateral compartments (Leaky gut model). A prewarmed HBSS transport buffer composed of Hank's Balanced Salt Solution pH 7.4 with Ca2+ and Mg2+, containing 5.5 mM D-(+)-glucose, Sodium Bicarbonate, and supplemented with 4 mM L-glutamine, 20 mM HEPES (Life Technologies Europe B.V., Zug, Switzerland) was used for all permeability experiments. The inserts were rinsed twice with HBSS using a reservoir tray, 100 μl HBSS were then added to the apical site of the inserts and subsequently moved to new wells with fresh HBSS and allowed to equilibrate at 37° C. for 60 min in the incubator followed by TEER measurement to obtain baseline resistance readings.
Lucifer Yellow CH dilithium salt (Sigma-Aldrich, Buchs, Switzerland) was dissolved in HBSS at a final concentration of 100 μg/ml. Basolateral stressor EtOH (Merck, KgaA, Darmstadt, Germany) was diluted to 5% in HBSS. Apical Stressor Rhamnolipids R90 (AGAE Technologies, Corvallis, USA) was dissolved in HBSS containing Lucifer Yellow at a final concentration of 350 μg/ml. All solutions were prepared freshly each time.
The HBSS transport buffer from the basolateral chamber was aspirated first, then the HBSS from the apical chamber and replaced with Lucifer yellow solution. For the apical stressor test, Lucifer yellow solution containing 350 μg/ml Rhamnolipids or Lucifer yellow solution without stressor for the control wells was loaded into the apical compartment, blank HBSS was subsequently added to the basolateral chamber.

[3] = system: fecal microbial community; assay: Microbiome composition by shotgun sequencing: alpha diversity (first set); format: cell-based, human; conditions: after 24 h fermentation, vs corresponding control
Experimental: (§1) Since ethanol is known to have antimicrobial effects, two blanks for each type of stock solution were included. As a source of the microbial community, a freshly prepared fecal suspension from the selected donor was added to the reactors. […] All tests, except the blanks, were performed in single repetition, resulting in 40 independent incubations, as specified in Table 1. Incubation conditions of the pre-screening experiment and the final experiment were 48 h at 37° C., under shaking (90 rpm) and anaerobic conditions. DNA were extracted from effluent samples collected from each fermentation flask before (0 h fermentation) and after fermentation (24 h fermentation) and use for microbiome composition analysis by Shotgun sequencing. Effluent samples were collected from each fermentation flask before (0 h fermentation) and after fermentation (48 h fermentation), sterilized by filtering through 0.22 μm filters and used for short chain fatty acids (SCFA), quantification of immunological biomarkers and in vitro analysis in cell culture systems.
(§2) For the first set of in vitro experiments, total DNA was extracted from all samples collected throughout the study using the QIAamp DNA stool minikit (Qiagen, Crawley, United Kingdom) according to the manufacturer's instructions, apart from addition of a bead-beating step and increasing the lysis temperature to 95° C. as described previously (McCormack et al., 2018).
(§3) After DNA isolation, DNA was quantified using the Qubit High Sensitivity DNA assay (Thermo Fisher). Whole metagenome libraries were then prepared using the Illumina Nextera XT kit (Illumina) in accordance with the manufacturer's instructions, with the following modifications: Firstly, tagmentation time was increased to 7 min and secondly, following incorporation of indices and Ampure purification of the products, the samples were each individually sized by running on an Agilent High Sensitivity Chip (Agilent) and quantified using the Qubit High Sensitivity DNA assay (Thermo Fisher) in accordance with Teagasc Sequencing Platform SOPs. The samples were then pooled equimolarly and sequenced on the Illumina NextSeq 500 with a NextSeq 500/550 v2 high-output reagent kit (300 cycles). All sequencing was done in the Teagasc sequencing facility in accordance with standard Illumina sequencing protocols.
(§4) Delivered raw FASTQ sequence files were quality checked as follows: poor quality and duplicate read removal, as well as trimming was implemented using a combination of SAM and Picard tools. Taxonomy was assigned to the reads using the Kraken software and functional analysis was performed with Super focus.

Bifidobacterium = assay: Microbiome composition by shotgun sequencing: Bifidobacterium (first set); format: cell-based, human; conditions: after 24 h fermentation, vs corresponding control
Experimental: as §1, §2, §3, §4

[4] = system: genes involved in Acetyl-CoA fermentation to Butyrate pathway; assay: Shotgun sequencing functional analysis: butyrate pathway genes (first set); format: cell-based, human; conditions: after 24 h fermentation, vs corresponding control
Experimental: as §1, §2, §3, §4

[5] = system: fecal suspension from the selected donor; assay: Gas production in closed colon incubations (first set); format: cell-based, human; conditions: after 48 h fermentation, vs corresponding control
Experimental: The colon incubations were performed in closed incubation systems. This allowed us to evaluate the accumulation of gasses in the headspace, which can be measured with a pressure meter. Gas production is a measure of microbial activity, and thus of the speed of fermentation of the potentially prebiotic substrates. It can be used as an indication for bloating and digestive wellbeing upon prebiotic consumption.
as §1
For both sets of in vitro experiments, colon incubations were performed in closed incubation systems as described above. This allowed to evaluate the accumulation of gasses in the headspace, which can be measured with a pressure meter. Gas production is a measure of microbial activity, and thus of the speed of fermentation of the potentially prebiotic substrates

[6] = system: fecal suspension from the selected donor; assay: Intestinal batch fermentation, SCFA production (first set); format: cell-based, human; conditions: 5× dose; after 48 h fermentation; vs corresponding control
Experimental: In a first set of in vitro experiments at the start of intestinal batch fermentation incubation, all test ingredients were added from stock solutions to the modified nutritional medium, containing (g/l): 2.5 K2HPO4, 10.9 KH2PO4, 2 NaHCO3, 2 yeast extract, 2 peptone, 1 mucin, 0.5 cysteine, 2 Tween 80, 2 glucose, 2 starch, 2 cellobiose, 0.1 NaCl, 0.01 MgSO4·7H2O, 0.01 CaCl2·6H2O, 0.05 hemin, 0.5 bile salts.
The other compounds were prepared in ethanol: • Vitamin K1 (VK1), • MEG-3 0080 EE Oil (MEG-3 0080 EE), • MEG-3 4535 EE Oil (MEG-3 4535 EE), • MEG-3 8000 EE Oil (MEG-3 8000 EE).
as §1
Short chain fatty acids (SCFA) are an assessment of the microbial carbohydrate metabolism (acetate, propionate and butyrate) or protein metabolism (branched SCFA) and can be compared to typical fermentation patterns for normal GI microbiota. Samples for SCFA analysis were analyzed after 0, 6, 24 and 48 h of incubation for both set of in vitro experiments, above.
SCFA were extracted from the samples with diethyl ether, after the addition of 2-methyl hexanoic acid as an internal standard. Extracts were analysed using a GC-2014 gas chromatograph (Shimadzu's-Hertogenbosch, the Nether-lands), equipped with a capillary fatty acid-free EC-1000Econo-Cap column (dimensions: […]×0.53 mm, film thickness […]; Alltech, Laarne, Belgium), a flame ionization detector and a split injector. The injection volume was […] and the temperature profile was set from 110 to 160° C., with a temperature increase of 6° C. min-1. The carrier gas was nitrogen and the temperature of the injector and detector were […] and 220° C., respectively. The production of unbranched and branched SCFA was calculated by summing the molar concentrations of acetate, propionate, butyrate, valerate and caproate, and summing isobutyrate, isovalerate and isocaproate molar concentrations, respectively. The total SCFA production was defined as the sum of unbranched and branched SCFA.

HT29 cells = assay: HT29 cell culture, quantification of immunological biomarkers; format: cell-based; conditions: 5× dose; effluent from 24 h fermentation; vs corresponding control
Experimental: as §1, with “([…]), […]” for “(0 h fermentation) and after fermentation (48 h fermentation), sterilized by filtering through 0.22 μm filters and used for short chain fatty acids (SCFA), quantification of immunological biomarkers and in vitro analysis in”
For both sets of in vitro experiments, HT29 cells were obtained from American Type Culture Collection (Manassas, VA). Cells were cultured in DMEM supplemented with 10% fetal bovine serum (FBS), 50 units/ml penicillin, 50 μg/ml streptomycin, L-glutamine, and nonessential amino acids (Life Technologies Europe B.V., Zug, Switzerland). Cells were seeded into 12-well plates at 8×10^5 cells per well and used after 2 days of preculture. They were starved in DMEM containing 0.25% FBS for 18 h before treatment. Cells were treated for 24 hours with TNF-α at 100 ng/mL or fermentation supernatants which were sterile filtered and diluted 1:20 in DMEM containing 0.25% FBS. All treatments were done in triplicate. Consequently, cytokines, chemokines and interleukins were quantified in HT29 supernatants using the Luminex Technology (LiquiChip Workstation IS 200, Qiagen, Hilden, Germany) with Bio-Plex Pro Human Cytokine Panel kits (Bio-Rad, Hercules, CA) or with Luminex Screening Assay kits (R&D Systems, Inc., Minneapolis, MN), following the manufacturer's instructions. The data were acquired with the Luminex IS 2.3 software and evaluated with the LiquiChip Analyser software (Qiagen, Hilden, Germany).

Row | Structure (SMILES) | TEER, healthy gut cellular model ([1]; 1× dose) | Lucifer yellow, apical induction of leaky gut cellular model ([2]; 0.2× dose) | TEER, apical induction of leaky gut cellular model ([2]; 0.2× dose) | Lucifer yellow, apical induction of leaky gut cellular model ([2]; 1× dose) | TEER, apical induction of leaky gut cellular model ([2]; 1× dose) | microbiome alpha diversity (Shannon diversity index) ([3]; 5× dose) | Bifidobacterium relative abundance (Bifidobacterium; 1× dose) | relative abundance of genes involved in Acetyl-CoA fermentation to Butyrate pathway ([4]; 5× dose) | gas production ([5]; 1× dose) | gas production ([5]; 5× dose) | butyrate production [6] | TEER, healthy gut cellular model ([1]; 0.2× dose) | microbiome alpha diversity (Shannon diversity index) ([3]; 0.2× dose) | microbiome alpha diversity (Shannon diversity index) ([3]; 1× dose) | Bifidobacterium relative abundance (Bifidobacterium; 0.2× dose) | relative abundance of genes involved in Acetyl-CoA fermentation to Butyrate pathway ([4]; 0.2× dose) | relative abundance of genes involved in Acetyl-CoA fermentation to Butyrate pathway ([4]; 1× dose) | IL-8 production by HT29 cells (HT29 cells)
1 | O=C1O[C@H]([C@@H](O)CO)C(O)=C1O [Vitamin C, Ascorbic acid] | increase TEER | decrease Lucifer yellow | increase TEER | decrease Lucifer yellow | increase TEER | increase microbiome diversity | increase Bifidobacterium relative abundance | increase relative abundance | reduced gas production | reduced gas production |  |  |  |  |  |  |  | 
2 | Cc1cc2nc3c(=O)[nH]c(=O)nc-3n(C[C@H](O)[C@H](O)[C@H](O)COP(=O)(O)O)c2cc1C [Vitamin B2-5-phosphate, Riboflavin-5-phosphate] |  | decrease Lucifer yellow | increase TEER |  |  |  | increase Bifidobacterium relative abundance |  |  |  | increase butyrate production | increase TEER | increase microbiome diversity | increase microbiome diversity | increase Bifidobacterium relative abundance | increase relative abundance | increase relative abundance | increase IL-8 production
